Data from PMC9578474, “In vitro and in silico β-lactamase inhibitory properties and phytochemical profile of Ocimum basilicum cultivated in central delta of Egypt” (Pharmaceutical Biology, 2022).

Test system: T1, CTX-M β-lactamase (ESBL)
T1 construct: gene blaCTX-M
Test: nitrocefin hydrolysis colorimetric assay (kit MAK222) with cell-free lysate of ESBL-producing E. coli
Format: biochemical

COC(=O)/C=C/c1ccccc1 [Methyl cinnamate]
Value methyl cinnamate: 11.6008 µg/mL

O=C(O)[C@H]1/C(=C/CO)O[C@@H]2CC(=O)N21 [clavulanic acid]
Value clavulanic acid: 8.1223 µg/mL
